Where two headings read alike, the source gives them in different places.
Experiments:
[1] = system: Candida albicans; test: Inhibition test in solution by measuring optical density, Candida albicans; assay type: cell-based; settings: gallic acid 5 milligram/milliliter, 24 hours, FIG. 3
Experimental: A sample of Candida albicans, the yeast found in candidiasis, was also obtained from the American Type Culture Collection (ATCC), catalog number 10231, and was cultured in YM agar (Difco 0712) and YM broth (Difco 0711). […] Control and gallic acid solutions (0.9 milliliters) were filtered and added into separate culture tubes, and to these were added 0.1 milliliter of either the Candida albicans or Lactobacillus acidophilus suspension at a concentration of around 10^6 cfu/milliliter. The culture tubes were then incubated overnight at 37 degrees Celsius, whereafter the optical density was measured at 2, 4, 6 and 24 hours at 590 nanometers, by pippeting 100 microliters of the control or sample solutions into 96-well microplates, and then using a Molecular Devices of Sunnyvale, Calif. ThermoMax Microplate Reader to obtain the optical density readings at 590 nm wavelengths.

[2] = system: Candida albicans; test: Zone-of-inhibition test, Candida albicans; assay type: cell-based
Experimental: (§1) A sample of Candida albicans, the yeast found in candidiasis, was also obtained from the American Type Culture Collection (ATCC), catalog number 10231, and was cultured in YM agar (Difco 0712) and YM broth (Difco 0711). A microorganism culture of 10^5 cfu (colony forming units)/milliliter in a 1× phosphate buffered saline (PBS) solution (diluted from 10× PBS LIQUID CONCENTRATE from VWR Cat. No. EM-6507] was prepared for each of Candida albicans and Lactobacillus acidophilus. One milliliter of each solution was plated on proper agar plates, depending on which microorganism was being tested. The agar plates were incubated at 35 degrees Celsius for four hours. Three 4 millimeter diameter wells were then punched into each agar plate. A test sample of 10 mg/ml gallic acid in sterilized 2-N-morpholino ethane sulfonic (MES, pH=4.7) buffer (0.1 M 2-[morpholino]-ethanesulfonic acid, 0.9 percent NaCl, pH 4.7, prepared from BupHTM MES Buffer Saline Pack from Cat. No. 28390, Pierce Biotechnology, Inc., Rockford, Ill.) was added to one well of each plate. […] The plates were incubated overnight at 35 degrees Celsius. The presence of a zone of microorganism inhibition was measured the following day for Candida albicans and Lactobacillus acidophilus activity, respectively.

[3] = system: Gardnerella vaginalis; test: Inhibition test in solution by plate count, Gardnerella vaginalis; assay type: cell-based; settings: 7.5 mg/ml gallic acid
Experimental: A sample of Gardnerella vaginalis, the pathogenic bacterium found in bacterial vaginosis, was obtained from the American Type Culture Collection (ATCC), catalog number 14018. The culture medium was ATCC medium 70 and Casman's medium (BD 229010) with 5 percent rabbit blood.
A test compound of Gardnerella vaginalis was prepared in culture media to form a suspension. Control and gallic acid solutions (0.9 milliliters; 7.5 milligram gallic acid/milliliter) were filtered and added into separate culture tubes, and to these were added 0.1 milliliter of the Gardnerella vaginalis suspension at a concentration of around 10^6 cfu/milliliter. The culture tubes were incubated at 37 degrees Celsius for 24 hours.
The samples in the culture tubes were then diluted at 1, 10 and 100 times, and 100 microliters of each dilution was plated onto agar plates with WASP (Whitely Automatic Spiral Plate) spiral plating equipment from Don Whitely Scientific Limited, USA. The plates were incubated overnight at 35 degrees Celsius, and the colonies were counted on each plate by either ProtoCol® from Synbiosis, Frederick, Md., USA Whitely Scientific Limited, USA or by hand count.

[4] = system: Lactobacillus acidophilus; test: Zone-of-inhibition test, Lactobacillus acidophilus; assay type: cell-based
Experimental: as §1, with “Lactobacillus acidophilus, a desirable bacterium in” for “Candida albicans,”, “vaginal ecosystem,” for “yeast found in candidiasis,”, “4354,” for “10231,”, “ATCC medium 416.” for “YM agar (Difco 0712) and YM broth (Difco 0711).”

[5] = system: Trichomonas vaginalis; test: Viable Trichomonas vaginalis cell count under a microscope; assay type: cell-based; settings: for Inhibitory effect on Trichomonas vaginalis cell counts compared to control: gallic acid 0.11 percent
Experimental: A sample of Trichomonas vaginalis, the parasite found in trichomonas vaginitis, was obtained from the American Type Culture Collection (ATCC), catalog number 30001. The culture medium was LYI-S-2 medium (ATCC medium 2154).
A sterile LYI-S-2 medium was prepared according to the manufacturer's instructions, and the pH of this medium was adjusted to pH 6.0 using 1 N HCl. Gallic acid monohydrate (SIGMA-398225 from Signa Aldrich, USA) was dissolved in the LYI-S-2 medium. […] 0.9 milliliter of the gallic acid/LYI-S-2 solution or culture medium only (as control) was added into different culture tubes.
0.1 milliliter of Trichomonas vaginalis culture suspension, at a concentration of 1×10^6/milliliter, was added to each of the culture tubes, which were then incubated at 35 degrees Celsius on a 15 degree horizontal slant.
The viable Trichomonas vaginalis cells in each tube were counted under a microscope after 24 hours.
This procedure was repeated twice.
Essentially the same procedure was performed as described in Example 1, but this time differing concentrations of gallic acid were tested on samples of Trichomonas vaginalis. The gallic acid concentrations that were tested were: 0.11 percent, 0.66 percent and 1.1 percent. More samples in each group were included (n=4), and the effects of the gallic acid over a longer time period were also observed, i.e. after 24 and 48 hours.

[6] = Highest concentration obtainable in water; assay type: physicochemical; settings: gallic acid monohydrate, only partially water soluble
[7] = system: Lactobacillus acidophilus; test: Inhibition test in solution by measuring optical density, Lactobacillus acidophilus; assay type: cell-based; settings: gallic acid 5 milligram/milliliter, 24 hours, FIG. 4
Experimental: A sample of Lactobacillus acidophilus, a desirable bacterium in the vaginal ecosystem, was also obtained from the American Type Culture Collection (ATCC), catalog number 4354, and was cultured in ATCC medium 416. […] Control and gallic acid solutions (0.9 milliliters) were filtered and added into separate culture tubes, and to these were added 0.1 milliliter of either the Candida albicans or Lactobacillus acidophilus suspension at a concentration of around 10^6 cfu/milliliter. The culture tubes were then incubated overnight at 37 degrees Celsius, whereafter the optical density was measured at 2, 4, 6 and 24 hours at 590 nanometers, by pippeting 100 microliters of the control or sample solutions into 96-well microplates, and then using a Molecular Devices of Sunnyvale, Calif. ThermoMax Microplate Reader to obtain the optical density readings at 590 nm wavelengths.

[8] = system: Lactobacillus acidophilus; settings: previously shown; cited from earlier work
[9] = 10 milligram/ml gallic acid or 0.5 percent Benzyl Quats in well, MES buffer pH 4.7, overnight 35 degrees Celsius, n = 2
[10] = zone-of-inhibition test, gallic acid 10 mg/ml, Benzyl Quats 0.5 percent

## O=C(O)c1cc(O)c(O)c(O)c1 [gallic acid, 3,4,5-trihydroxybenzoic acid]
[1]
  Growth of Candida albicans by optical density at 590 nm (in words): significantly inhibit the growth of Candida albicans
[2]; [9]
  Zone of inhibition, Candida albicans: 5 millimeter
[2]; [10]
  Effect on growth of Candida albicans (in words): selectively inhibited Candida albicans
[3]; 24 hours treatment, n = 4, negative control 1.81E+08, p < 0.05
  Gardnerella vaginalis plate count, Average: *3.43E+04
[3]; Gardnerella vaginalis, 24 hours of treatment, read-out: Inhibition on the growth of Gardnerella vaginalis compared to control group
  inhibition at 7500 µg/mL: > 100%
[4]; [9]
  Zone of inhibition, Lactobacillus acidophilus: 0 millimeter
[4]; [10]
  Effect on growth of Lactobacillus acidophilus (in words): did not affect the growth of Lactobacillus acidophilus
[5]; 24 hours, n=4, FIG. 1
  Inhibitory effect on Trichomonas vaginalis cell counts compared to control: 50%
[5]; 48 hours, n=4, FIG. 2
  Inhibitory effect on Trichomonas vaginalis cell counts compared to control: 70%
[5]; gallic acid 0.66 percent, 24 hours, n=4, Example 2
  Live Trichomonas vaginalis cells (in words): No live Trichomonas vaginalis cells were observed
[5]; gallic acid 0.66 percent, 48 hours, n=4, Example 2
  Live Trichomonas vaginalis cells (in words): No live Trichomonas vaginalis cells were observed
[5]; gallic acid 1.1 percent, 24 hours, Example 1
  Live Trichomonas vaginalis cells (in words): no live Trichomonas vaginalis cells were observed
[5]; gallic acid 1.1 percent, 24 hours, Example 1, control 1 000 000
  Number of Trichomonas cells, Repeat 2: 0
[5]; gallic acid 1.1 percent, 24 hours, Example 1, control 900 000
  Number of Trichomonas cells, Repeat 1: 0
[5]; gallic acid 1.1 percent, 24 hours, n=4, Example 2
  Live Trichomonas vaginalis cells (in words): No live Trichomonas vaginalis cells were observed
[5]; gallic acid 1.1 percent, 48 hours, n=4, Example 2
  Live Trichomonas vaginalis cells (in words): No live Trichomonas vaginalis cells were observed
[6]
  Highest concentration of gallic acid that could be obtained in water: 1.1 percent (g/100 milliliter)
[7]
  Growth of Lactobacillus acidophilus by optical density at 590 nm (in words): did not show any significant inhibition
[8]
  Effect on growth of Lactobacillus acidophilus (in words): does not affect the growth of Lactobacillus acidophilus

Reference: US20060217443A1, “Method for preventing and/or treating vaginal and vulval infections” (Kimberly-Clark Worldwide, Inc., priority 2005, published 2006)
